Source: patent US7888363B2, “Viral polymerase inhibitors” (Boehringer Ingelheim International GmbH, priority 2003, dated 2011)
Blank lines part the entries; values can stand above or below the compound they belong to.

Target: hepatitis C virus RNA dependant polymerase (NS5B) (Hepatitis C virus genotype 1b, UniProt P26663)
Assay: Inhibition of NS5B RNA dependent RNA polymerase activity
Format: biochemical
Procedure: A suitable assay is described in the examples.
Inhibition of NS5B RNA Dependent RNA Polymerase Activity
The compounds of the invention were tested for inhibitory activity against the hepatitis C virus RNA dependant polymerase (NS5B), according to protocol described in WO 03/010141

hepatitis C virus RNA dependant polymerase (NS5B), sequence (P26663 2420-3010): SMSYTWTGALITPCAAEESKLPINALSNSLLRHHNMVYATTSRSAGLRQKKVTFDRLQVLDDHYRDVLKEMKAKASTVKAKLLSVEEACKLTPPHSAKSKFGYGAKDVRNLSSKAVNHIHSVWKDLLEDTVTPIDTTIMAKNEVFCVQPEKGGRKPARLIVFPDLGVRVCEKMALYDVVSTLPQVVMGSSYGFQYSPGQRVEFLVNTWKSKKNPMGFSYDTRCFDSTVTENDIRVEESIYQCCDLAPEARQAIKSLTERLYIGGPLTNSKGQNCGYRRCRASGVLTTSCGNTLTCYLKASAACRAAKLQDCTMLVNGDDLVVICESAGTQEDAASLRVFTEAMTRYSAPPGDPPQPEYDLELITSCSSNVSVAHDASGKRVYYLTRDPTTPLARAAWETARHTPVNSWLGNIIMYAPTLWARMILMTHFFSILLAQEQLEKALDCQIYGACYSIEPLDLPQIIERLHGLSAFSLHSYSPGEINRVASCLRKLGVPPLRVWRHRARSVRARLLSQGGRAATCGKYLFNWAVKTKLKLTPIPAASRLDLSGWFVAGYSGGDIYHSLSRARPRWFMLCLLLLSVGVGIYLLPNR

SMILES: O=C(O)c1ccc2c(C3CCCCC3)c(-c3cccs3)n(CC(=O)N3CCC(N4CCCC4)CC3)c2c1 [Example 1034]
IC50 (Table 1, HCV NS5B polymerase): < 200 nM

SMILES: O=C(O)c1ccc2c(C3CCCCC3)c(-c3ccoc3)n(CC(=O)N3CCC(O)CC3)c2c1 [Example 1100]
IC50 (Table 1, HCV NS5B polymerase): < 200 nM

SMILES: COCCN1CCN(C(=O)Cn2c(-c3ccoc3)c(C3CCCCC3)c3ccc(C(=O)O)cc32)CC1 [Example 1126]
IC50 (Table 1, HCV NS5B polymerase): < 200 nM

Now from value to compound:

IC50 (Table 2, HCV NS5B polymerase): < 200 nM
SMILES: O=C(NS(=O)(=O)Cc1ccccc1)c1ccc2c(C3CCCCC3)c(-c3ccoc3)n(CC(=O)N3CCOCC3)c2c1 [Example 2003]

IC50 (Table 4, class ranges): < 200 nM
SMILES: NC(=O)C1(NC(=O)c2ccc3c(C4CCCCC4)c(-c4ccoc4)n(CC(=O)N4CCOCC4)c3c2)CCCC1 [Example 4072]

IC50 (Table 4, class ranges): 200 to 1000 nM
SMILES: CN1CCN(C(=O)Cn2c(-c3ccoc3)c(C3CCCCC3)c3ccc(C(=O)NCc4cccnc4)cc32)CC1 [Example 4017]

IC50 (Table 7, class ranges): 1000 to 10000 nM
SMILES: CC(C)CC(NC(=O)c1ccc2c(c1)c(C1CCCCC1)c(-c1ccoc1)n2CC(=O)N1CCC(N2CCCC2)CC1)C(N)=O (stereo not shown) [Example 7046]
